Test results: patent US11919902B2, “Aryl-bipyridine amine derivatives as phosphatidylinositol phosphate kinase inhibitors” (HiberCell, Inc., priority 2017, dated 2024)

Tests used:
[1] = molecular target: T1, GST tagged PIP4KtypeIIB (Homo sapiens, UniProt P78356); assay: Trans-FI P kinase assay PIP4K2B (PIP4KtypeIIB inhibition assay); type: biochemical; details: Table 4; compounds listed under IC50 range headings; 100 uM GTP, 5 nM PIP4KIIB; read-out: Trans-FI P kinase assays: PIP4K2B IC50
T1 construct: made in house; host or cells: E. coli
T1 sequence (P78356 1-416): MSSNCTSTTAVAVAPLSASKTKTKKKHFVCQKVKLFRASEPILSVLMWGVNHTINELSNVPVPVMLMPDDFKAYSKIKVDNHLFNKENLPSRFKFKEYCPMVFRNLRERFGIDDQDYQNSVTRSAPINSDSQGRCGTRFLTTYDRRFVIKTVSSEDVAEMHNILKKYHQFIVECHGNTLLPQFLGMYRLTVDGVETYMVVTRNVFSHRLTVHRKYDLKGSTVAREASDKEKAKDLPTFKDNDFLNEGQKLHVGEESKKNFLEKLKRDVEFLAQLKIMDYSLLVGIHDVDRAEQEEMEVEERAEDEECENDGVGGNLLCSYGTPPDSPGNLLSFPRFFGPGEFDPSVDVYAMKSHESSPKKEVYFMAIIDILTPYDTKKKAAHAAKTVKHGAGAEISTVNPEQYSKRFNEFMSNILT
How it was run: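 Transcreener FI fluorescence, converted to GDP by calibration, tracked product from 5 nM E. coli-expressed GST-PIP4KIIB acting on 80 uM PI5P (DOPE carrier) with 100 uM GTP. Compound (top 4.8 uM final, 5% DMSO) was preincubated 1 h at 27 C before the 2 h reaction; IC50 fitted from residual activity.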

[2] = molecular target: T2, PIP4K2A (full length protein, SignalChem) (Homo sapiens, UniProt P48426); assay: Kinase Assay PIP4K2 A (Sprint); ADP-Glo biochemical assay; details: Table 2; compounds listed under IC50 range headings
T2 construct: 4 nM PIP4K2A (full length protein, SignalChem); purchased SignalChem
T2 sequence (P48426 1-406): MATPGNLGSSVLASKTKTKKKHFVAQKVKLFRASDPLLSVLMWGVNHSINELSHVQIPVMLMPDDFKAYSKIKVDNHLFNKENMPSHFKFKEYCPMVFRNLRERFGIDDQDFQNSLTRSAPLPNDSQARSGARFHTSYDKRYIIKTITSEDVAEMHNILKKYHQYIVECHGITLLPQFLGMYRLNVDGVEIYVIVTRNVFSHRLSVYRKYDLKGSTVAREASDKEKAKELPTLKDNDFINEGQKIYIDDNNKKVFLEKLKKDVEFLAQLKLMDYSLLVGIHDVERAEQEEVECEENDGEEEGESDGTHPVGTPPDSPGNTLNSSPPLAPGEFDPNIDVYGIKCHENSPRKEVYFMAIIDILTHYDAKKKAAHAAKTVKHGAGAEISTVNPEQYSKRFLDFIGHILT
How it was run: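 ADP-Glo luminescence detected ADP after a 1 h RT reaction started with 60 μM ATP solution. Before that, full-length PIP4K2A (4 nM in mix) with 100 μM PI(5)P diC8 was pre-incubated 15 min with compounds in MOPS buffer pH 7.2, 25 mM MgCl2, 0.005% Tween 20. IC50 derived from % inhibition relative to DMSO over 10 three-fold concentrations.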

SMILES: CC(C)c1cncc(-c2ccc(-c3cncc(-c4ccnc5c4cc4n5CCN(C)C4=O)c3)cc2)c1 [Example 380, 4-(5-(4-(5-isopropylpyridin-3-yl)phenyl)pyridin-3-yl)-7-methyl-8,9-dihydropyrido[3′,2′:4,5]pyrrolo[1,2-a]pyrazin-6(7H)-one]
- IC50 [1]: 2.5 to 5 µM
- IC50 [2]: 1 to 2.5 µM

SMILES: CN1CCn2c(cc3c(-c4cncc(-c5ccc(C(=O)N6CC(C)(C)C6)cc5)c4)ccnc32)C1=O [Example 381, 4-(5-(4-(3,3-dimethylazetidine-1-carbonyl)phenyl)pyridin-3-yl)-7-methyl-8,9-dihydropyrido[3′,2′:4,5]pyrrolo[1,2-a]pyrazin-6(7H)-one]
- IC50 [1]: 0.1 to 1 µM
- IC50 [2]: 0.1 to 1 µM

SMILES: CN1CCn2c(cc3c(-c4cncc(-c5ccc(C(=O)N6C7CCC6CC7)cc5)c4)ccnc32)C1=O [Example 382, 4-(5-(4-(7-azabicyclo[2.2.1]heptane-7-carbonyl)phenyl)pyridin-3-yl)-7-methyl-8,9-dihydropyrido[3′,2′:4,5]pyrrolo[1,2-a]pyrazin-6(7H)-one]
- IC50 [1]: 0.1 to 1 µM
- IC50 [2]: 0.1 to 1 µM

SMILES: CC(C)Cn1cnnc1-c1ccc(-c2cncc(-c3ccnc4c3cc3n4CCN(C)C3=O)c2)cc1 [Example 383, 4-(5-(4-(4-isobutyl-4H-1,2,4-triazol-3-yl)phenyl)pyridin-3-yl)-7-methyl-8,9-dihydropyrido[3′,2′:4,5]pyrrolo[1,2-a]pyrazin-6(7H)-one]
- IC50 [1]: 0.01 to 0.1 µM
- IC50 [2]: 0.1 to 1 µM

SMILES: CC(C)n1cnnc1-c1ccc(-c2cncc(-c3ccnc4c3cc3n4CCN(Cc4ccncc4)C3=O)c2)cc1 [Example 385, 4-(5-(4-(4-isopropyl-4H-1,2,4-triazol-3-yl)phenyl)pyridin-3-yl)-7-(pyridin-4-ylmethyl)-8,9-dihydropyrido[3′,2′:4,5]pyrrolo[1,2-a]pyrazin-6(7H)-one]
- IC50 [1]: 0.001 to 0.01 µM
- IC50 [2]: 0.1 to 1 µM

SMILES: CN1CCn2c(cc3c(-c4cncc(-c5ccc(N6CCCS6(=O)=O)cc5)c4)ccnc32)C1=O [Example 386, 4-(5-(4-(1,1-dioxidoisothiazolidin-2-yl)phenyl)pyridin-3-yl)-7-methyl-8,9-dihydropyrido[3′,2′:4,5]pyrrolo[1,2-a]pyrazin-6(7H)-one]
- IC50 [1]: 0.1 to 1 µM
- IC50 [2]: 0.1 to 1 µM

SMILES: CC(C)n1nnnc1-c1ccc(-c2cncc(-c3ccnc4c3cc3n4CCN(C)C3=O)c2)cc1 [Example 387, 4-(5-(4-(1-isopropyl-1H-tetrazol-5-yl)phenyl)pyridin-3-yl)-7-methyl-8,9-dihydropyrido[3′,2′:4,5]pyrrolo[1,2-a]pyrazin-6(7H)-one]
- IC50 [1]: 0.001 to 0.01 µM
- IC50 [2]: 0.1 to 1 µM

SMILES: CC(C)n1cnnc1-c1ccc(-c2cncc(-c3ccnc4[nH]c(C(=O)NCCCCCCCCNC(=O)COc5cccc6c5C(=O)N(C5CCC(=O)NC5=O)C6=O)cc34)c2)cc1 (stereo not shown) [Example 388, N-(8-(2-((2-(2,6-dioxopiperidin-3-yl)-1,3-dioxoisoindolin-4-yl)oxy)acetamido)octyl)-4-(5-(4-(4-isopropyl-4H-1,2,4-triazol-3-yl)phenyl)pyridin-3-yl)-1H-pyrrolo[2,3-b]pyridine-2-carboxamide]
- IC50 [1]: 0.1 to 1 µM
- IC50 [2]: 0.1 to 1 µM

SMILES: CC(C)n1cnnc1-c1ccc(-c2cncc(-c3ccnc4[nH]c(C(=O)NCCOCCOCCOCCNC(=O)COc5cccc6c5C(=O)N(C5CCC(=O)NC5=O)C6=O)cc34)c2)cc1 (stereo not shown) [Example 389, N-(1-((2-(2,6-dioxopiperidin-3-yl)-1,3-dioxoisoindolin-4-yl)oxy)-2-oxo-6,9,12-trioxa-3-azatetradecan-14-yl)-4-(5-(4-(4-isopropyl-4H-1,2,4-triazol-3-yl)phenyl)pyridin-3-yl)-1H-pyrrolo[2,3-b]pyridine-2-carboxamide]
- IC50 [1]: 0.1 to 1 µM
- IC50 [2]: < 5 µM

SMILES: Cc1nc(CNC(=O)c2cc3c(-c4cncc(-c5ccc(N6CCCC6=O)cc5)c4)ccnc3[nH]2)oc1C [Example 390]
- IC50 [1]: 0.01 to 0.1 µM
- IC50 [2]: 0.005 to 0.1 µM

SMILES: CC(C)Cn1cnnc1-c1ccc(-c2cc(-c3ccnc4c3cc3n4CCN(CC4CC4)C3=O)cnc2N)cc1 [Example 391, 4-(6-amino-5-(4-(4-isobutyl-4H-1,2,4-triazol-3-yl)phenyl)pyridin-3-yl)-7-(cyclopropylmethyl)-8,9-dihydropyrido[3′,2′:4,5]pyrrolo[1,2-a]pyrazin-6(7H)-one]
- IC50 [1]: 0.01 to 0.1 µM
- IC50 [2]: 1 to 2.5 µM

SMILES: CC(C)n1cnnc1-c1ccc(-c2cc(-c3ccnc4oc(C(=O)NCC5CC5)cc34)cnc2N)cc1 [Example 392, 4-(6-amino-5-(4-(4-isopropyl-4H-1,2,4-triazol-3-yl)phenyl)pyridin-3-yl)-N-(cyclopropylmethyl)furo[2,3-b]pyridine-2-carboxamide]
- IC50 [1]: 0.001 to 0.01 µM
- IC50 [2]: 0.1 to 1 µM

SMILES: O=C(COc1cccc2c1C(=O)N(C1CCC(=O)NC1=O)C2=O)NCCOCCOCCOCCNC(=O)c1cc2c(-c3cncc(-c4ccc(N5CCCC5=O)cc4)c3)ccnc2[nH]1 (stereo not shown) [Example 393, N-(1-((2-(2,6-dioxopiperidin-3-yl)-1,3-dioxoisoindolin-4-yl)oxy)-2-oxo-6,9,12-trioxa-3-azatetradecan-14-yl)-4-(5-(4-(2-oxopyrrolidin-1-yl)phenyl)pyridin-3-yl)-1H-pyrrolo[2,3-b]pyridine-2-carboxamide]
- IC50 [1]: 0.1 to 1 µM
- IC50 [2]: 1 to 2.5 µM

SMILES: CN1CCn2c(cc3c(-c4cncc(-c5ccc(-c6nncn6C6CC(F)(F)C6)cc5)c4)ccnc32)C1=O [Example 394, 4-(5-(4-(4-(3,3-difluorocyclobutyl)-4H-1,2,4-triazol-3-yl)phenyl)pyridin-3-yl)-7-methyl-8,9-dihydropyrido[3′,2′:4,5]pyrrolo[1,2-a]pyrazin-6(7H)-one]
- IC50 [1]: 0.1 to 1 µM
- IC50 [2]: 2.5 to 5 µM

SMILES: O=C(COc1cccc2c1C(=O)N(C1CCC(=O)NC1=O)C2=O)NCCCCCCCCNC(=O)c1cc2c(-c3cncc(-c4ccc(N5CCCC5=O)cc4)c3)ccnc2[nH]1 (stereo not shown) [Example 395, N-(8-(2-((2-(2,6-dioxopiperidin-3-yl)-1,3-dioxoisoindolin-4-yl)oxy)acetamido)octyl)-4-(5-(4-(2-oxopyrrolidin-1-yl)phenyl)pyridin-3-yl)-1H-pyrrolo[2,3-b]pyridine-2-carboxamide]
- IC50 [1]: 0.1 to 1 µM
- IC50 [2]: 1 to 2.5 µM

SMILES: CC(C)Cn1cnnc1-c1ccc(-c2cncc(-c3ccnc4[nH]c(C(=O)NCCc5ccncc5)cc34)c2)cc1 [Example 396, 4-(5-(4-(4-isobutyl-4H-1,2,4-triazol-3-yl)phenyl)pyridin-3-yl)-N-(2-(pyridin-4-yl)ethyl)-1H-pyrrolo[2,3-b]pyridine-2-carboxamide]
- IC50 [1]: 0.01 to 0.1 µM
- IC50 [2]: 1 to 2.5 µM

SMILES: C[C@@H]1C[C@@H](C(C)(C)O)N(C(=O)c2cc3c(-c4cncc(-c5ccc(N6CCCC6=O)cc5)c4)ccnc3[nH]2)C1 [Example 397]
- IC50 [1]: 0.1 to 1 µM
- IC50 [2]: 0.1 to 1 µM
